Data published in patent US20050288502A1, “Substituted heterocyclic compounds and methods of use” (priority 2004, published 2005).

Tested on: TNF-α
Experiment: Lipopolysaccharide-activated THP1 cell TNF production assay (LPS induced TNF release)
Type: cell-based
Details: Homo sapiens, THP-1; THP1 cells, bacterial LPS, secreted TNF-α after 3 h at 37° C.
Method: Lipopolysaccharide-Activated THP1 Cell TNF Production Assay
THP1 cells are resuspended in fresh THP1 media (RPMI 1640, 10% heat-inactivated FBS, 1XPGS, 1XNEAA, plus 30 μM βME) at a concentration of 1E6/mL. One hundred microliters of cells per well are plated in a polystyrene 96-well tissue culture. One microgram per mL of bacterial LPS is prepared in THP1 media and is transferred to the wells. Test compounds are dissolved in 100% DMSO and are serially diluted 3 fold in a polypropylene 96-well microtiter plate (drug plate). HI control and LO control wells contain only DMSO. One microliter of test compound from the drug plate followed by 10 μL of LPS are transferred to the cell plate. The treated cells are induced to synthesize and secrete TNF-α at 37° C. for 3 h. Forty microliters of conditioned media are transferred to a 96-well polypropylene plate containing 110 μL of ECL buffer (50 mM Tris-HCl pH 8.0, 100 mM NaCl, 0.05% Tween 20, 0.05% NaN3 and 1% FBS) supplemented with 0.44 nM MAB610 monoclonal Ab (R&D Systems), 0.34 nM ruthenylated AF210NA polyclonal Ab (R&D Systems) and 44 μg/mL sheep anti-mouse M280 Dynabeads (Dynal). After a 2 h incubation at room temperature with shaking, the reaction is read on the ECL M8 Instrument (IGEN Inc.). A low voltage is applied to the ruthenylated TNF-α immune complexes, which in the presence of TPA (the active component in Origlo), results in a cyclical redox reaction generating light at […]. The amount of secreted TNF-α: in the presence of compound compared with that in the presence of DMSO vehicle alone (HI control) is calculated using the formula:% control (POC)=(cpd−average LO)/(average HI−average LO)*100. Data (consisting of POC and inhibitor concentration in μM) is fitted to a 4-parameter equation (y=A+((B−A)/(1+((x/C)ˆD))), where A is the minimum y (POC) value, B is the maximum y (POC), C is the x (cpd concentration) at the point of inflection and D is the slope factor) using a Levenburg-Marquardt non-linear regression algorithm.

| SMILES | IC50 [µM] |
| --- | --- |
| C[C@@H](Cc1cccc(S(=O)(=O)N(C)CCN(C)C)c1)Nc1nccc(N(C)c2nc(-c3ccccc3)cc3ncnn23)n1 | ≤ 20 |
| Cc1cc(N(C)c2nc(-c3ccccc3)cc3ncnn23)nc(N[C@@H](C)Cc2cccc(CN)c2)n1 | ≤ 20 |
| c1ccc(CCNc2nccc(Nc3nc(-c4ccccc4)cc4ncnn34)n2)cc1 [Example 4, N^2-phenethyl-N^4-(7-phenyl-[1,2,4]triazolo[1,5-c]pyrimidine-5-yl)-pyrimidine-2,4-diamine] | ≤ 20 |
| CC(Cc1cccc(CN)c1)Nc1nccc(N(C)c2nc(-c3ccccc3)cc3nccn23)n1 (stereo not drawn) [N2-[2-(3-Aminomethyl-phenyl)-1-methyl-ethyl]-N4-methyl-N4-(7-phenyl-imidazo[1,2-c]pyrimidin-5-yl)-pyrimidine-2,4-diamine] | ≤ 20 |
| CC(Cc1cccc(CN)c1)Nc1nccc(N(C)c2cc(-c3ccccc3)cc3ncnn23)n1 (stereo not drawn) [N^2-[2-(3-Aminomethyl-phenyl)-1-methyl-ethyl]-N^4-methyl-N^4-(7-phenyl-[1,2,4]triazolo[1,5-a]pyridin-5-yl)-pyrimidine-2,4-diamine] | ≤ 20 |
| CC(Cc1cccc(C(C)N)c1)Nc1nccc(N(C)c2nc(-c3ccccc3)cc3ncnn23)n1 (stereo not drawn) [N^2-{2-[3-(1-amino-ethyl)-phenyl]-1-methyl-ethyl}-N^4-methyl-N^4-(7-phenyl-[1,2,4]triazolo[1,5-c]pyrimidine-5-yl)-pyrimidine-2,4-diamine] | ≤ 20 |
| CC(Cc1cccc(CO)c1)Nc1nccc(N(C)c2nc(-c3ccccc3)cc3ncnn23)n1 (stereo not drawn) [[3-(2-{4-[methyl-(7-phenyl-[1,2,4]triazolo[1,5-c]pyrimidine-5-yl)-amino]-pyrimidin-2-ylamino}-propyl)-phenyl]-methanol] | ≤ 20 |

The next lines start with the values.

| IC50 [µM] | SMILES |
| --- | --- |
| ≤ 20 | C[C@@H](Cc1cccc(S(N)(=O)=O)c1)Nc1nccc(N(C)c2nc(-c3ccccc3)cc3ncnn23)n1 |
| ≤ 20 | CN(c1ccnc(NC2CCN(C(=O)OC(C)(C)C)CC2)n1)c1nc(-c2ccccc2)cc2ncnn12 [4-{4-[methyl-(7-phenyl-[1,2,4]triazolo[1,5-c]pyrimidin-5-yl)-amino]-pyrimidin-2-ylamino}-piperidine-1-carboxylic acid tert-butyl ester] |
| ≤ 20 | C[C@@H](Nc1nccc(Nc2nc(-c3ccccc3)cc3ncnn23)n1)c1ccccc1 [(R)-N^2-(1-Phenyl-ethyl)-N^4-(7-phenyl-[1,2,4]triazolo[1,5-c]pyrimidine-5-yl)-pyrimidine-2,4-diamine] |
| ≤ 20 | C[C@@H](Cc1cccc(CN)c1)Nc1nccc(N(C)c2nc(-c3ccccc3)cc3ncnn23)n1 [(S)-N^2-[2-(3-aminomethyl-phenyl)-1-methyl-ethyl]-N^4-methyl-N^4-(7-phenyl-[1,2,4]triazolo[1,5-c]pyrimidin-5-yl)-pyrimidine-2,4-diamine] |
| ≤ 20 | C[C@@H](Cc1cccc(CO)c1)Nc1nccc(N(C)c2nc(-c3ccccc3)cc3ncnn23)n1 [(S)-[3-(2-{4-[methyl-(7-phenyl-[1,2,4]triazolo[1,5-c]pyrimidine-5-yl)-amino]-pyrimidin-2-ylamino}-propyl)-phenyl]-methanol] |
| ≤ 20 | C[C@H](Nc1nccc(Nc2nc(-c3ccccc3)cc3ncnn23)n1)c1ccccc1 [Example 7, (S)—N^2-(1-phenyl-ethyl)-N^4-(7-phenyl-[1,2,4]triazolo[1,5-c]pyrimidine-5-yl)-pyrimidine-2,4-diamine] |
| ≤ 20 | C[C@@H](Cc1ccccc1)Nc1nccc(N(C)c2nc(-c3ccccc3)cc3ncnn23)n1 [Example 10, N^4-methyl-N^2-(S)-(1-methyl-2-phenyl-ethyl)-N^4-(7-phenyl-[1,2,4]triazolo[1,5-c]pyrimidine-5-yl)-pyrimidine-2,4-diamine] |
| ≤ 20 | Cc1cc(N(C)c2nc(-c3ccccc3)cc3ncnn23)nc(N[C@@H](C)Cc2cccc([C@@H](C)N)c2)n1 [Example 35] |
| ≤ 20 | CC(Cc1ccccc1)Nc1nccc(Nc2nc(-c3ccccc3)cc3ncnn23)n1 (stereo not drawn) [N^2-(1-methyl-2-phenyl-ethyl)-N^4-(7-phenyl-[1,2,4]triazolo[1,5-c]pyrimidine-5-yl)-pyrimidine-2,4-diamine] |
| ≤ 20 | CC(Cc1cccc(CN)c1)Nc1nccc(N(C)c2nc(-c3ccccc3)cc3ncnn23)n1 (stereo not drawn) [N^2-[2-(3-aminomethyl-phenyl)-1-methyl-ethyl]-N^4-methyl-N^4-(7phenyl-[1,2,4]triazolo[1,5-c]pyrimidin-5-yl)-pyrimidine-2,4-diamine] |
| ≤ 20 | CC(Cc1cccc(CO)c1)Nc1nccc(N(C)c2nc(-c3ccccc3)cc3nccn23)n1 (stereo not drawn) [[3-(2-{4-[Methyl-(7-phenyl-imidazo[1,2-c]pyrimidin-5-yl)-amino]-pyrimidin-2-ylamino}-propyl)-phenyl]-methanol] |
